One compound from patent publication US20250276955A1, “CORONAVIRUS MAIN PROTEASE INHIBITORS AND METHODS USING SAME” (Baylor College of Medicine, priority 2021, published 2025) can be followed below.

One may read the solubility as how much of the substance goes into solution per volume.

In one series the target is T1, human thrombin (Homo sapiens, UniProt P00734).
T1 construct: purchased Sigma-Aldrich MAK243
The experiment in a line: Thrombin fluorescence assay. Type of series: biochemical. The conditions noted are these: fluorescence assay.

In series [1] the target is SARS-COV-2 M^pro (authentic N- and C-termini) (Severe acute respiratory syndrome coronavirus 2, UniProt P0DTD1). The experiment in a line: biochemical. It is filed as biochemical.
Series [2] in a line: Apparent solubility in PBS buffer. As to conditions: PBS buffer with 2% DMSO, aqueous buffer, kinetic from dmso stock.
Series [3] has as its target SARS-CoV-2 main protease (M^pro) (Severe acute respiratory syndrome coronavirus 2, UniProt P0DTD1). Briefly: Protein thermal shift stability assay (SYPRO Orange). Type of series: binding.
Another series concerns the target SARS-COV-2 M^pro-His6 (Severe acute respiratory syndrome coronavirus 2, UniProt P0DTD1). Briefly: biochemical. Type of series: biochemical. As to conditions: 25 nM enzyme, 15 μM fluorescent peptide, Morrison equation; Inactive = less than 50% inhibition at 25 μM compound; read-out: M^pro-His Ki.
A further series deals with T2, HOVPro-Gi.1 (Norovirus, UniProt Q83883).
T2 construct: HOVPro-Gi.1
The experiment in a line: Thermal shift, HOVPro-Gi.1. Type of series: binding.

The test system of the next series is HOVPro-Gii.4. The experiment in a line: Thermal shift, HOVPro-Gii.4. Type of series: binding.

Values after ≈ are worked out from the molar mass of the structure shown. “Also recorded” adds a separate entry of the source. Read-outs that look alike come from different tables or passages of the source.

T2 sequence (Q83883 1101-1281): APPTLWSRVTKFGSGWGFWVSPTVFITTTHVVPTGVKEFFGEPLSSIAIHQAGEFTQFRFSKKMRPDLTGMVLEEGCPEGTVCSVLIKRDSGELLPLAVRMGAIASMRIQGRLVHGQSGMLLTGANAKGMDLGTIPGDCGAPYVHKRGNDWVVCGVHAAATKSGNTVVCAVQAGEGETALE

As to `COc1cc(-c2cccc3[nH]ncc23)cc(C=O)c1OCC(=O)N(C)C` [CDD-1713, 2-(2-formyl-4-(1H-indazol-4-yl)-6-methoxyphenoxy)-N,N-dimethylacetamide], on human thrombin, the Thrombin inhibition result is on record as “None”. For the same compound, the “thrombin inhibition (in words)” value on human thrombin is “No inhibition”. Moreover, the Ki in series [1] (25 nM enzyme, 15 μM fluorescent peptide, Morrison equation, Inactive = less than 50% inhibition at 25 μM compound, read-out: M^pro Ki) is 64.8 ± 4.9 nM; in series [1] (Morrison equation, read-out: apparent Ki against M^pro), 64.8 nM; in series [1] (Table 5, read-out: Ki,app) it was 64.8 nM; in series [1] (read-out: Ki, app towards SARS-CoV-2 M^pro, athentic termini, authentic termini) it was 64.8 nM; at SARS-COV-2 M^pro-His6, 44.8 ± 2.9 nM. Moreover, in series [2], the solubility worked out at 157 µM (≈ 55.4 µg/mL). For the same compound, in series [3], the “stabilization of M^pro in thermal shift assay (in words)” value is on record as “stabilized; also recorded: concentration-dependent stabilization”. Moreover, the “ΔTm of Mpro at 50 μM compound conc.” value in series [3] (50 μM compound, […]) stood at 2.99 °C. The “ΔTm of HOVPro-Gi.1 at 50 μM compound conc.” value at HOVPro-Gi.1 was −0.09 °C. In addition, the “ΔTm of HOVPro-Gii.4 at 50 μM compound conc.” value with HOVPro-Gii.4 was −0.73 °C.
